Key:
[1] = target: Histamine H4 receptor (Homo sapiens, UniProt Q9H3N8); assay: Displacement of [3H]histamine from human recombinant histamine H4 receptor
[2] = Dissociation constant, pKa of the compound by Analiza PRO analyzer based method; type: physicochemical
[3] = Dissociation constant, pKa of the compound by potentiometric titration; type: physicochemical

Structure (SMILES) | Ki [1] [nM] | pKa [2] | pKa [3]
Nc1nc(NC2CCCC2)cc(C2CCNCC2)n1 | > 1000 | 6.1 | 
Nc1nc(C2CCCC2)cc(N2CCNCC2)n1 |  | 7.9 | 
Nc1cc(C2CCNCC2)cc(OC2CCCC2)n1 | > 10000 | 4.7 | 
CN[C@@H]1CCN(c2cc(CC(F)(F)F)nc(N)n2)C1 | 11 | 5.4 | 
CN[C@@H]1CCN(c2ccnc(NC(C)C)c2)C1 |  | 6.6 | 
CN[C@@H]1CCN(c2cc(C(F)(F)F)nc(N)n2)C1 | > 10000 | 3.1 | 3.1
Nc1cc(N2CCNCC2)cc(NC2CCCC2)n1 | 2 | 6.5 | 
Nc1nc(C2CCCC2)cc(C2CCNCC2)n1 | 1550 | 4.5 | 
CN[C@@H]1CCN(c2ccnc(NC(C)C)n2)C1 |  | 6.4 | 
Nc1cc(C2CCNCC2)cc(NC2CCCC2)n1 | 50 | 6.1 | 
CN[C@@H]1CCN(c2cc(N)nc(NC(C)C)c2)C1 | 3.1 | 6.5 | 
CN[C@@H]1CCN(c2cc(N)nc(NC(C)C)n2)C1 |  | 6.3 | 
CN[C@@H]1CCN(c2cc(CCC(F)(F)F)nc(N)n2)C1 |  | 7.8 | 

The remaining lines, values ahead:

Ki [1] [nM] | pKa [2] | pKa [3] | Structure (SMILES)
126 | 5.5 |  | CN[C@@H]1CCN(c2cc(CF)nc(N)n2)C1
320 | 6.3 |  | CN[C@@H]1CCN(c2cc(N)nc(C(C)C)n2)C1
> 10000 | 4.4 |  | CN[C@@H]1CCN(c2cc(C(F)F)nc(N)n2)C1
460 | 6.5 |  | CN[C@@H]1CCN(c2ccnc(C(C)C)n2)C1
92 | 6 |  | CN[C@@H]1CCN(c2cc(CCl)nc(N)n2)C1
 | 6.3 | 7.5 | CCc1cc(N2CC[C@@H](NC)C2)nc(N)n1
456 |  | 5.9 | CCc1cc(N2CC[C@@H](NC)C2)ncn1

Reference: ChEMBL document CHEMBL3351441, “The effect of pK(a) on pyrimidine/pyridine-derived histamine H4 ligands” (Bioorg Med Chem Lett, 2014)
